Source: patent US20040223946A1, “Adhesive treatment for insect and related bites” (Closure Medical Corporation, priority 2003, published 2004)

Test: Observation of the monomer composition about one minute and at least twenty-four hours after preparation
Type: physicochemical
Conditions: 1 wt % in 2 mL 2-octyl cyanoacrylate monomer
Description: A 2-octyl cyanoacrylate monomer composition is prepared by adding 1 wt % menthol to 2 mL of 2-octyl cyanoacrylate monomer. The mixture is stirred.
The characteristics of the composition are observed at about one minute after preparation and later at least twenty-four hours after preparation.

With `CC1CCC(C(C)C)C(O)C1` (stereo not shown) [menthol] the “solubility of the additive in 2-octyl cyanoacrylate monomer” value was “soluble in the monomer”.
